Measured values: US20190002429A1, “Derivatives of Xanthone Compounds” (Agency for Science, Technology and Research, priority 2011, published 2019)
Several values for one entry are separate records, joined by “and”; a condition that tells them apart may be missing. Equal values may be shown once.

Experiments:
[1] = Calcein leakage from DOPC:DOPS liposomes; conditions: DOPC:DOPS = 3:1
Description: (§1) To further investigate antimicrobial action of the active compounds via inner membrane targeting, a calcein leakage study was performed. In brief, liposomes which mimic bacterial membrane (DOPE: […] The lipids were dissolved in methanol/chloroform (1:2, by volume). The solvent was then dried gently using a constant stream of nitrogen gas. Then, the lipid film was placed under vacuum for at least two hours. […] The hydrated vesicles were freeze-thaw (frozen in liquid nitrogen and warmed in water bath) for at least 7 cycles. Extrusion method using mini-extruder (Avanti Polar Lipid Inc.) was used to produce homogeneous large unilamellar vesicles (LUVs). The extrusion was done for at least 10 cycles using a polycarbonate membrane (Whatman, pore size 100 nm) to obtain LUVs with diameter of 100 nm. To separate the calcein encapsulated vesicles from free calcein, gel filtration column Sephadex G-50 was used. The concentrations of eluted liposomes were determined using total phosphorus determination assay. Leakage of calcein from the liposome induced by AM-series compounds could be monitored using fluorescence spectroscopy (Photon Technology International Model 814) at an excitation wavelength of 490 nm and an emission wavelength of 520 nm. […] Those compounds with […] HC50 values have stronger leakage %. […] To further investigate the inner membrane targeting action of AM-series compounds, E. coli lipid extract was used to construct the liposome. […] Therefore, the outer layer of Gram-negative bacteria (LPS) may play important role to impede the AM-series compounds to reach inner membrane. Calcein leakage data strongly support the active compounds are inner membrane targeting.

[2] = test system: Enterococcus faecalis ATCC 29212; assay: MIC against Enterococcus faecalis ATCC 29212; type: cell-based
[3] = test system: Staphylococcus aureus ATCC 700699 (VISA); assay: MIC against S. aureus ATCC 700699 (MRSA-700699, VISA); type: cell-based
MRSA DM21455 [4] = assay: Drug resistance test, 20 serial passages; type: cell-based, Staphylococcus aureus; conditions: MRSA DM21455, FIG. 7
[5] = test system: Enterococcus faecalis 11: DU9345 VRE; assay: MIC against Enterococcus faecalis DU9345 VRE; type: cell-based; conditions: E. faecalis DU9345 VRE; no unit in table (Example 10 MICs in μg/ml)
[6] = test system: Clinical Staphylococcus aureus DM4583R; assay: MIC against clinical S. aureus DM4583R; type: cell-based; conditions: Source: Eye
Gram-negative bacteria = assay: Antimicrobial activity against Gram-negative bacteria (statement); type: cell-based
[7] = test system: Klebsiella pneumoniae ATCC10031; assay: MIC against Klebsiella pneumoniae ATCC10031; type: cell-based
[8] = test system: Clinical Staphylococcus aureus DM4001; assay: MIC against clinical S. aureus DM4001; type: cell-based; conditions: Clinical S. aureus DM4001, Source: Eye
[9] = test system: Straphylococcus aureus ATCC 6538P; assay: MIC against S. aureus ATCC 6538P; type: cell-based, Staphylococcus aureus
MRSA DM21455 [10] = assay: MIC against MRSA DM21455; type: cell-based, Staphylococcus aureus
rabbit cornea = conditions: in vivo
Description: The particular model used was a 5 mm diameter corneal epithelial abrasion model. Wound healing was monitored by a slit lamp using flourescein disclosure dye so that the size of the wound could be measured. The compounds were applied topically three times per day.

MRSA DR68004 = assay: MIC against MRSA DR68004; type: cell-based, Staphylococcus aureus; conditions: MRSA DR68004, Source: Blood
MRSA DM09808R = assay: MIC against MRSA DM09808R; type: cell-based, Staphylococcus aureus
[11] = test system: Straphylococcus aureus ATCC 25923; assay: MIC against S. aureus ATCC 25923; type: cell-based, Staphylococcus aureus
[12] = test system: Staphylococcus aureus ATCC 6538; assay: MIC against S. aureus ATCC 6538; type: cell-based
MRSA DR42412 = assay: MIC against MRSA DR42412; type: cell-based, Staphylococcus aureus
[13] = test system: Bacillus cereus ATCC11778; assay: MIC against Bacillus cereus ATCC11778; type: cell-based
[14] = test system: Pseudomonas aeruginosa ATCC27853; assay: MIC against Pseudomonas aeruginosa ATCC27853; type: cell-based
[15] = pH value in different media; type: physicochemical
Description: The pH values were obtained using an electronic pH meter.

[16] = test system: Straphylococcus aureus ATCC 29737; assay: MIC against S. aureus ATCC 29737; type: cell-based, Staphylococcus aureus
[17] = Calcein leakage from DOPE:DOPG liposomes; conditions: DOPE:DOPG = 3:1
Description: as §1

[18] = test system: Enterococcus faecalis 11: DS6527 (VRE 208/11); assay: MIC against Enterococcus faecalis DS6527 (VRE 208/11); type: cell-based; conditions: E. faecalis DS6527 (VRE 208/11); no unit in table (Example 10 MICs in μg/ml)
[19] = test system: S. aureus and Enterococcus faecalis; conditions: 4 strains, sub-inhibitory concentrations, FIG. 8
MRSA DM21595 = assay: MIC against MRSA DM21595; type: cell-based, Staphylococcus aureus

3,6-bis-[4-(diethylamino)butoxy)]-1-hydroxy-7-methoxy-2,8-bis(3-methylbut-2-enyl)-9H-xanthen-9-one [AM-016]
% Leakage of calcein ([1]; compound:lipid ratio 1:2): 88.43% | % Leakage of calcein ([1]; compound:lipid ratio 1:4): 72.76% | % Leakage of calcein ([1]; compound:lipid ratio 1:8): 37.66% | Minimum inhibition concentration (MIC) [2]: 0.78 μg/ml and 1.17 μM | MIC ([3]; MRSA-700699, Example 10, Mueller Hinton broth dilution): 0.095 µg/mL | Minimum inhibitory concentration ([3]; S. aureus ATCC 700699 (VISA), no unit in table (Example 10 MICs in μg/ml)): 0.39 | Development of drug resistance (MRSA DM21455 [4]): has difficulty in developing drug resistance | Minimum inhibitory concentration [5]: 0.78 | Minimum inhibition concentration (MIC) [6]: 0.78 μg/ml and 1.17 μM | Activity against Gram-negative bacteria (Gram-negative bacteria): inactive | Minimum inhibition concentration (MIC) [7]: 40 μg/ml and 60.16 μM | Minimum inhibition concentration (MIC) [8]: 1.56 μg/ml and 2.35 μM | Minimum inhibition concentration (MIC) [9]: 0.78 μg/ml and 1.17 μM | Minimum inhibition concentration (MIC) (MRSA DM21455 [10]; MRSA DM21455, Source: Eye): 0.39 μg/ml and 0.59 μM | MIC (MRSA DM21455 [10]; MRSA-21455 (Eye), Example 10, Mueller Hinton broth dilution): 1.56 µg/mL | Cytotoxicity to the rabbit eye in corneal wound healing model (rabbit cornea): does not exhibit any cytotoxicity | Effect on wound healing (percentage wound closing) (rabbit cornea): does not delay wound healing | Minimum inhibition concentration (MIC) (MRSA DR68004): 1.56 μg/ml and 2.35 μM | Minimum inhibition concentration (MIC) (MRSA DM09808R; MRSA DM09808R, Source: Eye): 1.56 μg/ml and 2.35 μM | MIC (MRSA DM09808R; MRSA-09808R (Eye), Example 10, Mueller Hinton broth dilution): 3.125 µg/mL | Minimum inhibition concentration (MIC) [11]: 3.125 μg/ml and 4.70 μM | Minimum inhibition concentration (MIC) [12]: 1.56 μg/ml and 2.35 μM | Minimum inhibition concentration (MIC) (MRSA DR42412; MRSA DR42412, Source: Sputum): 1.56 μg/ml and 2.35 μM | MIC (MRSA DR42412; MRSA-42412 (Sputum), Example 10, Mueller Hinton broth dilution): 0.395 µg/mL | Minimum inhibition concentration (MIC) [13]: 3.125 μg/ml and 4.70 μM | Minimum inhibition concentration (MIC) [14]: 50 μg/ml and 75.20 μM | pH ([15]; PBS, 50 μg/ml compound): 6.96 ± 0.01 | pH ([15]; PBS, 100 μg/ml compound): 6.97 ± 0.01 | pH ([15]; Saline, 50 μg/ml compound): 6.84 ± 0.21 | pH ([15]; Saline, 100 μg/ml compound): 6.78 ± 0.05 | pH ([15]; Water, 50 μg/ml compound): 6.44 ± 0.27 | pH ([15]; Water, 70 μg/ml compound): 6.72 ± 0.23 | Minimum inhibition concentration (MIC) [16]: 1.56 μg/ml and 2.35 μM | % Leakage of calcein ([17]; compound:lipid ratio 1:2): 54.43% | % Leakage of calcein ([17]; compound:lipid ratio 1:4): 37.00% | % Leakage of calcein ([17]; compound:lipid ratio 1:8): 21.00% | Minimum inhibitory concentration [18]: 0.098 | Resistance (>4-fold increase in original MIC) in multipassage study [19]: no evidence of resistance or cross-resistance | Minimum inhibition concentration (MIC) (MRSA DM21595; MRSA DM21595, Source: Wound): 0.78 μg/ml and 1.17 μM | MIC (MRSA DM21595; MRSA-21595 (Wound), Example 10, Mueller Hinton broth dilution): 0.395 µg/mL
